Assay results from paper PMC10367051, “Comprehensive Mechanistic View of the Hydrolysis of Oxadiazole-Based Inhibitors by Histone Deacetylase 6 (HDAC6)” (ACS Chemical Biology, 2023).
Residue numbers refer to the chain shown, from its start.

Columns and labels:
[1] = target: T1, zHDAC6 (WT) (Danio rerio, UniProt F8W4B7); assay: Inhibition assay, zebrafish HDAC6 catalytic DD2 domain, wild type; type: biochemical
T1 construct: Danio rerio HDAC6 (amino acids 440–798; zHDAC6); His (N, cleaved yes); MBP (N, cleaved yes); made in house; host or cells: RIPL Escherichia coli
T1 sequence (F8W4B7 440-798): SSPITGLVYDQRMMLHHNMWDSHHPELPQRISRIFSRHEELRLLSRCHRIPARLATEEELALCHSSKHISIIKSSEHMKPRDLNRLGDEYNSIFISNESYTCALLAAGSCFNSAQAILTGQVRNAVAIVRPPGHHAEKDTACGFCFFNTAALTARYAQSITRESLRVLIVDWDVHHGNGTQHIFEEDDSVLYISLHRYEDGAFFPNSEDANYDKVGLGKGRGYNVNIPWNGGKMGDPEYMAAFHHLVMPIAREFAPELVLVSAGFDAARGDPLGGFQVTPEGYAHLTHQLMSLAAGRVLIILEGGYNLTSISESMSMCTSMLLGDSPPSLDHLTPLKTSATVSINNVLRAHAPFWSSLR
Experimental: The second catalytic domain of Danio rerio HDAC6 (amino acids 440–798; zHDAC6) was expressed in RIPL Escherichia coli as described previously using the pEC566-zHDAC6 expression vector.[16],[38] Briefly, bacteria were incubated at 37 °C with shaking (250 rpm) until the optical density reached an OD600 = 0.5. Then, the culture was cooled to 18 °C for 1 h, and recombinant protein expression was induced by the addition of 75 μM isopropyl β-D-1-thiogalactopyranoside together with 200 μM ZnSO4. The culture was grown at 18 °C for an additional 18 h and harvested by centrifugation at 5500g for 15 min. The cell pellet was resuspended in the lysis buffer (50 mM phosphate, 300 mM NaCl, 10% glycerol, and 20 mM imidazole at pH 8; 5 mL g^–1 bacterial pellet) and lysed by three passages through EmulsiFlex (Avestin). Cell lysates were centrifuged (15,000g at 4 °C for 20 min), and the fusion protein in the supernatant was purified via Ni-NTA chromatography. […] The purity of protein preparations was monitored by SDS-PAGE (Figure S2).
Optimized fluorometric assays were used to determine inhibition constants of studied compounds against individual HDAC isoforms as described previously.[32] […] Deacetylation reactions were monitored either by high-performance liquid chromatography (HPLC) (HDAC10) or by quantification of released AMC (λex/λem = 365/440 nm) using a CLARIOstar plate reader (BMG Labtech GmbH).

[2] = target: T2, HDAC6(Y745F) mutant (Danio rerio, UniProt F8W4B7, Y745F); assay: Inhibitor hydrolysis in vitro by HDAC6(Y745F) mutant (LC-MS/MS); type: biochemical; conditions: 30 °C; for hydrolysis by the HDAC6(Y745F) mutant: 20 μM compound, 2 μM enzyme
T2 construct: Danio rerio HDAC6 (amino acids 440–798; zHDAC6); His (N, cleaved yes); MBP (N, cleaved yes); made in house; host or cells: RIPL Escherichia coli
T2 sequence (F8W4B7 440-798 Y745F): T1 sequence (F8W4B7 440-798) with Y306F
Experimental: The zHDAC6 mutants (Y745F and H574A) were constructed using the Quick-change site-directed mutagenesis protocol with the pEC566-zHDAC6 expression plasmid as a template. Both mutants were expressed and purified as described above for wild-type zHDAC6 (Figure S2).
Mass spectrometry quantification of inhibitors/reaction products was carried out with a Shimadzu LCMS-8040 instrument (Shimadzu, HPLC Prominence system). Analytes were separated on a Kinetex XB-C18 2.6 μm, 100 Å column (50 × 2.1 mm; Phenomenex) in a linear 15–60% CH3CN/H2O gradient containing 0.1% formic acid at a flow rate of 0.8 mL min^–1 over 4 min. Multiple reaction monitoring (MRM) parameters were optimized for each analyte, and corresponding major CID fragments were used for quantification. Analytes were quantified using corresponding calibration curves generated from pure compounds dissolved in water.
[…] […] Four microliter aliquots of reaction mixtures were injected into the system directly from the 96-well plate, and inhibitors/reaction products were quantitated as described above.

With `CS(=O)(=O)N(Cc1ccc(C(=O)NN)cn1)c1cccc(Cl)c1` [compound 4] the IC50 [1] was 3.87 ± 1.64 µM.

With `CS(=O)(=O)N(Cc1ccc(-c2nnc(C(F)F)o2)cn1)c1cccc(Cl)c1` [compound 8] the “rate of hydrolysis by the HDAC6(Y745F) mutant relative to wild type” value ([2]; 20 μM 8, 2 μM enzyme) was “comparable to the wild-type HDAC6” and the “hydrolysis by the HDAC6(Y745F) mutant” value [2] was “hydrolyzed”.

In the case of `CS(=O)(=O)N(Cc1ccc(C(=O)NNC(=O)C(F)F)cn1)c1cccc(Cl)c1` [compound 6], the “hydrolysis by the HDAC6(Y745F) mutant” value [2] is reported as “hydrolyzed” and the IC50 [1] is reported as 41.7 µM.
